In one assay the target is CIIbeta (Homo sapiens, UniProt O00750). Briefly: InvitroGen Adapta kinase assay, CIIbeta. Type of assay: biochemical.
Another assay has as its target PIP5Kβ (Homo sapiens, UniProt O14986). The experiment in a line: InvitroGen Adapta kinase assay, PIP5Kβ. To be noted: Other Phosphoinositide kinases; head prints no unit. In kind it is biochemical.
The subject of the next assay is over 350 protein kinases. The experiment in a line: Ambit KINOMEscan kinome-wide protein kinase screen. Type of assay: binding. To be noted: 10 μM, over 350 protein kinases (over 300). The source says: Examples of some kinases in the screen are shown below in Table 3.
Assay [1] has as its system LB cells. The experiment in a line: MM cell growth with IGF-1 or IL-6 (MTT). In kind it is cell-based, human. To be noted: 0.625 μM-[…], 48 h, with IL-6 or IGF-1. As to the method: LB cells ([…]) were cultured for 48 h with control media; with the compound of formula I, in the presence or absence of either IL-6 or IGF-1. […] Chemicon International) dye absorbance. Cells were pulsed with 10 μL of 5 mg/mL MTT to each well for the last 4 hours of 48-hour cultures, followed by 100 μL isopropanol containing 0.04 N HCl.

Assay [2] has as its system LB cells. The experiment in a line: LB cell proliferation with or without BMSCs ([3H]-thymidine uptake). Type of assay: cell-based, human. To be noted: 0.625 μM-10 μM, 48 hours, presence of BMSC. On the procedure: Cell proliferation was assessed using [^3H]-thymidine uptake assay. All data represent mean (±SD) of triplicate experiment.
Assay [3] concerns HS-578T, T47D, and MCF7 cells. The experiment in a line: Apoptosis in breast cancer cell lines (Annexin V-FITC/7AAD). In kind it is cell-based. To be noted: 24 h. On the procedure: HS-578T, T47D, and MCF7 cells were treated with the compound of formula I or corresponding DMSO concentrations for 24 h. The percentage of apoptotic cells was determined by Annexin V-FITC/7AAD staining. Bottom left, viable cells ([…]); bottom right, early apoptotic cells (Annexin V-FITC positive only); top right, mid-late apoptotic cells (Annexin V-FITC/7AAD double-positive); and top left, late apoptotic/necrotic (7AAD positive only). Percentages of cells in each quadrant are indicated except for the bottom left quadrant (viable cells).

In assay [4] the test system is mantle cell lymphoma lesions. Briefly: Lesion area in a patient with mantle cell lymphoma. Type of assay: in vivo, human. Particulars: 50 mg BID oral, 28 days (1 cycle). On the procedure: This example provides data relating to the area of lesions of a patient with mantle cell lymphoma after 1 cycle of treatment (28 days) with the compound of formula I. The area of 6 lesions was measured prior to treatment and after a cycle of treatment. […] The results are summarized in a bar graph found in FIG. 12.

The test system of a further assay is patient AML cells. The experiment in a line: Phospho-Akt production in patient AML cells. To be noted: 0.1, 1.0, 10 μM. Type of assay: cell-based, human. The text has this:
PI3Kδ is implicated in signaling in AML patient cells.

A further assay deals with INA-6 and LB MM cells. Briefly: Autophagy / AVO development in MM cells. In kind it is cell-based, human. As to the method:
To detect and quantify AVOs in compound 1 or 3MA-treated cells, vital staining was performed for 15 min with acridine orange at a final concentration of 1 μg/ml. Samples were examined under a fluorescence microscope.
Autophagosome formation was defined by the accumulation of LC3; arrows indicate autophagosomes, FIG. 33A.
GAPDH served as a loading control.

A further assay relates to LB and INA-6 cells. Briefly: MM cell growth with IL-6 or IGF-1 ([3H]-thymidine). In kind it is cell-based, human. To be noted: 5.0 or 10 μM; IL-6 1 and 10 ng/ml, IGF-1 10 and 100 ng/mL. As to the method:
DNA synthesis was determined by measuring [3H]-thymidine incorporation during the last 8 h of 72 h cultures. Data represent means (±SD) of triplicate cultures.

The subject of assay [5] is CD19+ cells from CLL patients. The experiment in a line: Surface CD40, CD86, CD20 on CD19+ CLL cells (flow cytometry). Type of assay: cell-based, human. To be noted: 0.5 μM lenalidomide and/or 10 μM compound, 48 hours. On the procedure: Antibodies to CD20, CD40, CD80, CD86 or IgG1 (BD Biosciences, San Jose Calif.) were surface stained.
To extend these findings, inhibition of PI3K-δ prevented lenalidomide was investigated to see whether it induced up-regulation of other co-stimulatory molecules important to B-cell antigen presentation. […] Surface expression of CD40 or CD86 was evaluated by flow cytometry using a CD40- or CD86-PE antibodies and IgG1-PE isotype control.
Internalization of CD20 was evaluated by quantifying surface expression of CD20 by flow cytometry using a CD20-PE antibodies and IgG1-PE isotype control.

The next assay has as its system CLL cells. Briefly: BH3 profiling (mitochondrial depolarization) of CLL cells. Particulars: 24 hours; p=0.075. In kind it is cell-based, human. As to the method:
CLL patient peripheral blood, bone marrow, and lymph node samples were analyzed by either the plate-based fluorimetry or FACS method. Briefly, PBMCs from CLL patients were made into single cell suspensions and gently permeabilized using digitonin (0.002%). For the fluorimtery-based method, 100 μM JC-1 (Invitrogen) was added at this time and cells were then loaded onto a 384-well plate, with individual wells containing individual BH3-only peptides. The JC1-BH3 assays were then conducted in triplicate on a Tecan Safire 2 with […] and Em 590+/−20 nm with a three-hour time course. For the FACS-based method, single cell suspensions from CLL patient PBMCs were stained using human Fc Block (BD Pharmingen) followed by anti-CD19-V450 (BD Pharmingen) and anti-CXCR4-APC (BD Pharmingen). […] JC-1 was measured from the 488-nm laser using a 530/30-nm filter (FITC) and a 585/42-nm filter (PE), and the degree of mitochondrial depolarization was calculated using the surrogate of the change in the median of PE signal. The mitochondrial depolarization reported in response to each BH3 peptide is normalized relative to the median percentage change in PE fluorescence of the JC-1 dye with a negative control, dimethyl sulfoxide (DMSO) (0%) and a positive control, the mitochondrial uncoupling agent carbonyl cyanide 4-(trifluoromethoxy)-phenylhydrazone (FCCP) (100%). […]

Setting [6] is: listed as compound of formula I.

From patent US20130064812A1, “COMBINATION THERAPIES FOR HEMATOLOGIC MALIGNANCIES” (Gilead Calistoga LLC, priority 2011, published 2013) come the findings set out here.

CIIbeta, sequence (O00750 whole entry): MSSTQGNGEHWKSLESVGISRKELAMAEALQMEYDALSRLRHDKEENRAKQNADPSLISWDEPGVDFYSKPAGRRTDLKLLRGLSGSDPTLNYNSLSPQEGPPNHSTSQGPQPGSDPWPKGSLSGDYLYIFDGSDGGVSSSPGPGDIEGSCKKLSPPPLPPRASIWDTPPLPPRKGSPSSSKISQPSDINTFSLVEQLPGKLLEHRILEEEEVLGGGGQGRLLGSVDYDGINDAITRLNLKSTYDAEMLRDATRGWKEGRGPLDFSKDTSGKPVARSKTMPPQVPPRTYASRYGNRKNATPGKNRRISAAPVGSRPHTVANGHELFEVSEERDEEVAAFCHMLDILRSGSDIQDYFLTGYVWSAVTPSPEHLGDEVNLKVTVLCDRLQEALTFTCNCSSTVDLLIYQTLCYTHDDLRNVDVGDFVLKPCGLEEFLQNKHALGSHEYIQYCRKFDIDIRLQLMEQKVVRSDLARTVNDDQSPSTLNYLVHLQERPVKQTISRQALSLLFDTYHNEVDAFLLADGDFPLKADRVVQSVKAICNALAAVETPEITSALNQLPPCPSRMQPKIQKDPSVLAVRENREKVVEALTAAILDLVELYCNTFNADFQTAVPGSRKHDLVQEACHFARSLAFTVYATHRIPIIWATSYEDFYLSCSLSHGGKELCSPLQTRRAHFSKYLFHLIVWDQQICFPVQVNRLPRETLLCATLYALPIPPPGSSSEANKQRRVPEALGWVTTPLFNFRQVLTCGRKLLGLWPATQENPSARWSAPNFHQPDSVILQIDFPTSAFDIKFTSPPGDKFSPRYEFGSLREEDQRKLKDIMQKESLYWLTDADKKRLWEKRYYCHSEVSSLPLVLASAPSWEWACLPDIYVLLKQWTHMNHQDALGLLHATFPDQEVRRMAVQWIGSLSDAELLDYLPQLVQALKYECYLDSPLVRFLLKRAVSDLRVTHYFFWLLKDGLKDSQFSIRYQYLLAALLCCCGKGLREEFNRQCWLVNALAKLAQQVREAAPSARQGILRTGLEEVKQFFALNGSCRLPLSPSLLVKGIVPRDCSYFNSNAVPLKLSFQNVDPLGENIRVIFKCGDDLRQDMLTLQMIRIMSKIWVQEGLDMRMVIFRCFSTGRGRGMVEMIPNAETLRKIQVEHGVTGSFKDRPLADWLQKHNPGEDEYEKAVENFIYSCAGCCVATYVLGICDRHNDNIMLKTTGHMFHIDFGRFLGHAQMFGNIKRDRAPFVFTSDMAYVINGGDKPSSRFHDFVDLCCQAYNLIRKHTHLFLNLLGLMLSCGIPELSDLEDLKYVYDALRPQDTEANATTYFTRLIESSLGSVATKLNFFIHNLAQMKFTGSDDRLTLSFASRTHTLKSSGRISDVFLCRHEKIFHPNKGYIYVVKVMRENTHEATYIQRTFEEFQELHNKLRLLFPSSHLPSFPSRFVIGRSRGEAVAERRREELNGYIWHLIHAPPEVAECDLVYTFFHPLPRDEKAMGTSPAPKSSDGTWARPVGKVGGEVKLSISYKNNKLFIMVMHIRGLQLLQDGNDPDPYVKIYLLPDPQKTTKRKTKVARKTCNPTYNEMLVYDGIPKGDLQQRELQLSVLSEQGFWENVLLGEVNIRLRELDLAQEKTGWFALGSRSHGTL
PIP5Kβ, sequence (O14986 whole entry): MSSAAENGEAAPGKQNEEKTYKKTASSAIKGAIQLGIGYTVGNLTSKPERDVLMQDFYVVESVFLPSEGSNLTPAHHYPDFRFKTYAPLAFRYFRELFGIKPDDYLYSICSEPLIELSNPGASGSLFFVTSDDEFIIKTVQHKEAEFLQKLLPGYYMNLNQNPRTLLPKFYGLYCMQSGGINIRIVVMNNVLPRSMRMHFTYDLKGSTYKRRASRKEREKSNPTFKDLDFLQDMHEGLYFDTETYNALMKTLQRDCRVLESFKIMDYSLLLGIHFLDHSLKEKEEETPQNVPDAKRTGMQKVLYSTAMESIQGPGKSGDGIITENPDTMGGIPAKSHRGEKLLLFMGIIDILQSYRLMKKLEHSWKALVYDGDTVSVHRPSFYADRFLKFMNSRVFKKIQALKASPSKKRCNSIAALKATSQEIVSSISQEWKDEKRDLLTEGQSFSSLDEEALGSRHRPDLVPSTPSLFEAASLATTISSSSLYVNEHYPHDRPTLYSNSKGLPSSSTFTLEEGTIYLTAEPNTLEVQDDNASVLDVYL

As a reminder, the IC50 is the point on the concentration scale where inhibition reaches its midpoint. High values mean a need for much substance, low ones inhibition by little substance. In the case of `CC[C@H](Nc1ncnc2[nH]cnc12)c1nc2cccc(F)c2c(=O)n1-c1ccccc1` [Compound I, 5-fluoro-3-phenyl-2-[1-(9H-purin-6-ylamino)-propyl]-3H-quinazolin-4-one], the IC50 against CIIbeta and against PIP5Kβ was over 1000 nM each time. The “activity in kinome-wide protein kinase screen” value in the assay with over 350 protein kinases is given as “failed to detect any activity”; in the assay with over 350 protein kinases (setting [6]) it was “little activity”. Moreover, the MM cell growth entry in the assay on LB cells [1] is reported as “inhibits MM cell growth even in the presence of cell growth stimulatory cytokines”. The LB cell growth result with LB cells [2] is “LB cell growth is reduced”. For the same molecule, the entries for the “apoptosis in breast cancer cell lines” value in [3] and in assay [3] (setting [6]) were “cytotoxicity to three different breast cancer cell lines” and “induces apoptosis in breast cancer cell lines”, respectively. Also, the “decrease in tumor burden” value in assay [4] was 44%. Further, the “phospho-Akt production in patient AML cells” value with patient AML cells is “reduces phospho-Akt production in patient AML cells”. In addition, in the assay on INA-6 and LB MM cells (5 μM, 6 h, INA-6 and LB), the LC3 staining result is recorded as “markedly increased LC 3 staining”. For the same molecule, in the assay on INA-6 and LB MM cells (INA-6, 6 h), the “LC3-II and Beclin1 protein” value is “markedly increased LC3-II and Beclin1 protein”. The “acidic vesicular organelle (AVO) development” value in the assay on INA-6 and LB MM cells (acridine orange staining, LB and INA-6) is given as “development of AVOs”. Besides, the “growth inhibition in the presence of IL-6 or IGF-1” value in the assay on LB and INA-6 cells was “Neither IL-6 nor IGF-1 protected against the growth inhibition”. Further, the “internalization of CD20” value in assay [5] (N=5, p=0.0057) is “prevented this effect”. In addition, the “surface expression of CD40 and CD86” value in [5] (N=25, p=0.0102 and <0.0001) was “prevent the up-regulation of CD40 and CD86 induced by lenalidomide”. The “mitochondrial priming of stroma-exposed CLL cells” value in the assay on CLL cells was “increased mitochondrial priming”.
